# Assay results published in patent US6465476B1, “Immuno-modulator exhibiting antimicrobial and anti-mycrobacterial activities, method for producing the same and pharmaceutical preparation” (priority 1997, dated 2002).
# Read-outs that look alike come from different tables or passages of the source.
# Legend:
# [1] = tested on: agent of leprosy (mycobacteria of leprosy); details: leprosy patients
# [2] = tested on: antibody-forming cells (AFC) in the spleen; assay: Humoral immunity, localized-in-gel hemolysis, AFC accumulation in spleen of immunized mice; type: in vivo, hybrid mice F1 (CBA/C57BL6)
# Experimental: The influence on humoral immunity was studied using the method of localized-in-gel hemolysis. […] On the 5th day the number of antibody-forming cells (AFC) in the spleen of the mice was calculated and the immune response stimulation index was determined as the ratio of AFC number in the test group to the AFC number in the control group. The respective data are represented in Table 2.
# [3] = tested on: macrophages; assay: Phagocytic activity of macrophages (clearance from blood); type: in vivo, mice; details: 500 μg per mouse per os
# Description: The influence of the preparations in question on the phagocytic activity of macrophages was studid from clearence of the carcass in blood taken from the retroorbital sinus of mice that received the preparations per os. The results were estimated on the phagocytic index α (see Table 4).
# [4] = tested on: antibody-forming cells (AFC) in the spleens; assay: Antibody-forming cells in the spleen, immunodeficiency caused by irradiation (Jeme-Nordin's procedure); type: in vivo, mice F1 (CBA×C57BL/6); details: irradiated mice 4 Gy
# Experimental: Determination of immunotropic activity of isophonum was carried out. Immunotropic activity of isophonum was determined on a model of immunodeficiency caused by irradiation. To create an immunodeficient state the mice F1 (CBA×C57BL/6) were irradiated with gamma-rays on a radioterapeutic apparatus in a dose of 4 Gy (Gy is the irradiation unit gray) at an irradiation dose power of 0.55 Gr/min. The number of antibody-forming cells (AFC) in the spleens was calculated by Jeme-Nordin's procedure. Isophonum and diuciphonum were introduced per os over a wide range of doses. The investigation results are represented in Table 1.
# [5] = tested on: human mononucleator cells (T-lymphocytes); assay: Proliferation of T-lymphocytes in cell culture in vitro (3H-thymidine); type: cell-based
# Experimental: The influence of the test compound on the proliferation of T-lymphocytes was studied on a model in vitro. To this end human mononucleator cells were preliminarily incubated during three hours in the presence of different concentrations of each test substance. Each test substance was studied over a wide range of its concentrations, that is from […]. As a negative control there was added a physiological 0.9 percent solution of NaCl. The results of the influence of novel compoubds on the intensity of proliferation of human lymphocytes in the cell culture in vitro are represented in Table 3.
# [6] = tested on: Kyp-4 strain of leprosy mycobacteria; assay: Antileprous activity in mice infected by Shepard's procedure; type: in vivo, leprosy mycobacteria; male mice of the CBA line; details: after six months; isophonum dose 2.5 mg/kg
# Description: Antileprous activity of isophonum as compared with that of diuciphonum was studied on male mice of the CBA line infected with the laboratory Kyp-4 strain of leprosy mycobacteria taken in an amount of 5000 and introduced intraplantedly by Shepard's procedure. The experiment lasted six months from the 7th of February to the […] 1996. Observed were 5 groups of mice with 15 mice in each group. All the animals were kept under the same conditions of the vivarium on a standard diat.
# The first group (controls): during six months of the experiment the mice received 0.5 ml of a starch suspension through a probe five times a week. After six months the animals were killed through a cervical dislocation of backbone, the organs were subjected to a bacterioscopic investigation, no pathologic deviations characteristic of any of the groups were found. The bacteriscopic investigation of the infected site was carried out by grinding the mouse foot in 2 ml of 0.1 percent solution of albumin, making a smear from 0.01 ml of the suspenstion and painting it by Ziel-Nielson's procedure and counting the number of leprosy micobacteria in 60 fields of vision to determine the number of micobacteria per mouse in each group.
# [7] = tested on: Tubazide-resistent H37Rv; type: in vivo, tuberculosis mycobacteria; mice of the CBA line; details: Tubazide-resistent H37Rv
# [8] = in vivo; cited from earlier work
# [9] = tested on: tuberculosis mycobacteria H37Rv (USSR H37Rv); type: in vivo, tuberculosis mycobacteria; mice of the CBA line; details: USSR H37Rv
# [10] = due to impurities contained therein; cited from earlier work
# [11] = after three months, 0.6 g daily
compound,measurement,setting,value
"Cc1[nH]c(=O)[nH]c(=O)c1S(=O)(=O)Nc1ccc(S(=O)(=O)c2ccc(NS(=O)(=O)c3c(C)[nH]c(=O)[nH]c3=O)cc2)cc1 [Diuciphonum, reference compound]",B-lymphocytes,"[1]; after one month, 0.6 g daily",8.4 ± 0.6
same,T-helpers,"[1]; after one month, 0.6 g daily",32.4 ± 2.0
same,T-lymphocytes,"[1]; after one month, 0.6 g daily",50.5 ± 2.1
same,T-suppressors,"[1]; after one month, 0.6 g daily",20.1 ± 0.6
same,Th/Ts (immunoregulatory index),"[1]; after one month, 0.6 g daily",1.6 ± 0.1
same,B-lymphocytes,[1]; [11],9.0 ± 0.3
same,T-helpers,[1]; [11],36.9 ± 2.3
same,T-lymphocytes,[1]; [11],55.4 ± 2.4
same,T-suppressors,[1]; [11],20.0 ± 0.5
same,Th/Ts (immunoregulatory index),[1]; [11],1.8 ± 0.4
same,B-lymphocytes,[1]; before treatment,6.3 ± 0.3
same,T-helpers,[1]; before treatment,16.8 ± 0.2
same,T-lymphocytes,[1]; before treatment,30.4 ± 0.4
same,T-suppressors,[1]; before treatment,17.0 ± 0.4
same,Th/Ts (immunoregulatory index),[1]; before treatment,1.0
same,AFC-number in the spleen,"[2]; 500 μg per mouse per os in starch suspension, 5th day after immunization",2250 ± 125
same,Immune response stimulation index,"[2]; 500 μg per mouse per os, ratio of AFC test group to control group",4.5
same,Phagocytic index,[3],5.18 ± 0.04
same,"Phagocytic index, percent of controls",[3]; controls 100%,(123%)
same,AFC-number in the spleen,[4]; 10 μg per mouse per os,768 ± 123
same,Immune response stimulation index,[4]; 10 μg per mouse per os,2.5 ± 0.2
same,AFC-number in the spleen,[4]; 100 μg per mouse per os,870 ± 119
same,Immune response stimulation index,[4]; 100 μg per mouse per os,2.9 ± 0.12
same,AFC-number in the spleen,[4]; 1000 μg per mouse per os,647 ± 64
same,Immune response stimulation index,[4]; 1000 μg per mouse per os,2.1 ± 0.2
same,"Intensity of involvement of 3H-thymidine in DNA of cultivated cells, PHA-activated",[5]; 0.01 μg/ml,22811 impulse per minute
same,"Intensity of involvement of 3H-thymidine in DNA of cultivated cells, Spontaneous",[5]; 0.01 μg/ml,860 impulse per minute
same,"Intensity of involvement of 3H-thymidine in DNA of cultivated cells, PHA-activated",[5]; 0.03 μg/ml,24214 impulse per minute
same,"Intensity of involvement of 3H-thymidine in DNA of cultivated cells, Spontaneous",[5]; 0.03 μg/ml,850 impulse per minute
same,"Intensity of involvement of 3H-thymidine in DNA of cultivated cells, PHA-activated",[5]; 0.1 μg/ml,28946 impulse per minute
same,"Intensity of involvement of 3H-thymidine in DNA of cultivated cells, Spontaneous",[5]; 0.1 μg/ml,804 impulse per minute
same,"Intensity of involvement of 3H-thymidine in DNA of cultivated cells, PHA-activated",[5]; 1 μg/ml,26400 impulse per minute
same,"Intensity of involvement of 3H-thymidine in DNA of cultivated cells, Spontaneous",[5]; 1 μg/ml,799 impulse per minute
same,"Intensity of involvement of 3H-thymidine in DNA of cultivated cells, PHA-activated",[5]; 5 μg/ml,20150 impulse per minute
same,"Intensity of involvement of 3H-thymidine in DNA of cultivated cells, Spontaneous",[5]; 5 μg/ml,800 impulse per minute
same,Number of mycobacteria in the foot × 10^6,[6],0.048 ± 0.007 × 10^6
same,Percentage of infected animals,[6],60%
same,Damage index,[7]; dose not given,2.27 ± 0.19
same,Life duration,[7]; dose not given,24.9 ± 2.4
same,Weight of the lung,[7]; dose not given,602.7 ± 70.2
same,toxicity,[8],2600 mg/kg
same,Damage index,[9]; dose not given,2.31 ± 0.24
same,Life duration,[9]; dose not given,25.1 ± 2.8
same,Weight of the lung,[9]; dose not given,580.4 ± 50.7
"Cc1[nH]c(=O)[nH]c(=O)c1S(=O)(=O)NNC(=O)c1ccncc1 [N-(6-methyl-2,4-dioxo-1,2,3,4-tetrahydro-5-pyrimidinsulfon)-N′-isonicotinoylhydrazide]",behaviour on prolonged storage,[10],does not withstand prolonged storage conditions
NNC(=O)c1ccncc1 [Tubazide],Damage index,[7]; 100 μg per mouse,2.44 ± 0.24
same,Life duration,[7]; 100 μg per mouse,23.7 ± 2.4
same,Weight of the lung,[7]; 100 μg per mouse,628.7 ± 48.4
same,Damage index,[7]; 200 μg per mouse,2.01 ± 0.18
same,Life duration,[7]; 200 μg per mouse,30.2 ± 2.8
same,Weight of the lung,[7]; 200 μg per mouse,580.4 ± 46.4
same,toxicity,[8],150 mg/kg
same,Damage index,[9]; 100 μg per mouse,2.16 ± 0.17
same,Weight of the lung,[9]; 100 μg per mouse,586.4 ± 47.2
same,Damage index,[9]; 200 μg per mouse,2.11 ± 0.18
same,Life duration,[9]; 200 μg per mouse,32.2 ± 4.4
same,Weight of the lung,[9]; 200 μg per mouse,550.6 ± 46.4
